From ChEMBL document CHEMBL4184134, “Daryamide Analogues from a Marine-Derived Streptomyces species” (J Nat Prod, 2017)
Calls of active or inactive are those of the source.

Columns and labels:
[1] = system: HCC44; experiment: Cytotoxicity against human HCC44 cells assessed as reduction in cell viability at 1 nM to 50 uM incubated for 96 hrs by Cell-titer Glo reagent based assay; type: functional
[2] = system: NCI-H2122; experiment: Cytotoxicity against human NCI-H2122 cells assessed as reduction in cell viability at 1 nM to 50 uM incubated for 96 hrs by Cell-titer Glo reagent based assay; type: functional
[3] = system: Bacillus subtilis; experiment: Antimicrobial activity against Bacillus subtilis at incubated for 24 hrs by paper disk method; type: functional, organism-based
[4] = system: A549; experiment: Cytotoxicity against human A549 cells assessed as reduction in cell viability at 1 nM to 50 uM incubated for 96 hrs by Cell-titer Glo reagent based assay; type: functional
[5] = species on record: Homo sapiens; experiment: Cytotoxicity against human HCC366 cells assessed as reduction in cell viability at 1 nM to 50 uM incubated for 96 hrs by Cell-titer Glo reagent based assay; type: functional
[6] = system: Pseudomonas aeruginosa; experiment: Antimicrobial activity against Pseudomonas aeruginosa incubated for 24 hrs by paper disk method; type: functional, organism-based

Measured: Activity

CC(C)C/C=C/C=C/C(=O)N(CCO)c1cc(CCC(=O)O)c(O)cc1O
inactive: all assays above

CCC/C=C/C=C/C(=O)NC1=C[C@@](O)(CCC(N)=O)[C@H]2O[C@H]2[C@@H]1O
inactive: all assays above

CC(C)C/C=C/C=C/C(=O)N[C@H]1CCCNC1=O
inactive: all assays above

CC(C)/C=C/C=C/C(=O)NC1=C[C@@](O)(CCC(N)=O)[C@H]2O[C@H]2[C@@H]1O
inactive: all assays above

CC(C)C/C=C/C=C/C(=O)NC1=C[C@@](O)(CCC(N)=O)[C@H]2O[C@H]2[C@@H]1O
inactive: all assays above
